Data reported in ChEMBL document CHEMBL1201862, “PubChem BioAssay data set” (2004).
Counter-ions that a name gives are not always drawn.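 96-well plates; 48 h exposure; 5 concentrations. Endpoints by linear interpolation between flanking doses. Not reached: highest tested concentration assigned. GI50: concentration for 50% inhibition of growth.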 The source made the active and inactive calls. Cut-off read from the data, not from the text of the source: active = GI50 up to about 1.1 µM and inactive = higher.

Experiments:
Experiment in all cases: inhibition of tumour cell growth, NCI panel, 48 h
HOP-92 = system: HOP-92
IGROV-1 = system: IGROV-1
K562 = system: K562
COLO 205 = system: COLO 205
TK-10 = system: TK-10
SW-620 = system: SW-620
PC-3 = system: PC-3
OVCAR-5 = system: OVCAR-5
U-251 = system: U-251
SN12C = system: SN12C
MDA-MB-435 = system: MDA-MB-435
MOLT-4 = system: MOLT-4
RPMI-8226 = system: RPMI-8226
SNB-19 = system: SNB-19
SNB-75 = system: SNB-75
A549 = system: A549
UACC-62 = system: UACC-62
RXF 393 = system: RXF 393
HOP-62 = system: HOP-62
SK-OV-3 = system: SK-OV-3

SMILES	GI50 (HOP-92)	GI50 (IGROV-1)	GI50 (K562)	GI50 (COLO 205)	GI50 (TK-10)	GI50 (SW-620)	GI50 (PC-3)	GI50 (OVCAR-5)	GI50 (U-251)	GI50 (SN12C)	GI50 (MDA-MB-435)	GI50 (MOLT-4)	GI50 (RPMI-8226)	GI50 (SNB-19)	GI50 (SNB-75)	GI50 (A549)	GI50 (UACC-62)	GI50 (RXF 393)	GI50 (HOP-62)	GI50 (SK-OV-3)
CC(=O)OC1CC[C@@]2(C)C(=CC[C@@H]3[C@@H]2CC[C@]2(C)C(OC(C)=O)[C@H](n4ccnc4)C[C@@H]32)C1 (stereo partly specified)	97.5 µM (inactive)	34.4 µM (inactive)	24.6 µM (inactive)	18.5 µM (inactive)	> 100 µM (inactive)	33.6 µM (inactive)	16.2 µM (inactive)	74.1 µM (inactive)	37.8 µM (inactive)	56 µM (inactive)	16.9 µM (inactive)	12.9 µM (inactive)	17.3 µM (inactive)	62.8 µM (inactive)	54.7 µM (inactive)	35.3 µM (inactive)	16.1 µM (inactive)	30.2 µM (inactive)		
Cc1ccc([S+]([O-])c2sccc2C=O)cc1 (stereo unspecified)		22.6 µM (inactive)	48.6 µM (inactive)	41 µM (inactive)	> 100 µM (inactive)	24.2 µM (inactive)	34 µM (inactive)	49.2 µM (inactive)	18.9 µM (inactive)	22.9 µM (inactive)	24.7 µM (inactive)	21.3 µM (inactive)	31 µM (inactive)	> 100 µM (inactive)	33.9 µM (inactive)	> 100 µM (inactive)	19.3 µM (inactive)	56.9 µM (inactive)	31.3 µM (inactive)	> 100 µM (inactive)
CC1CC(=O)N2CCCNC2=C1C#N (stereo unspecified)		> 100 µM (inactive)	> 100 µM (inactive)	> 100 µM (inactive)	> 100 µM (inactive)	> 100 µM (inactive)	> 100 µM (inactive)		> 100 µM (inactive)	> 100 µM (inactive)	> 100 µM (inactive)	> 100 µM (inactive)	> 100 µM (inactive)	> 100 µM (inactive)	> 100 µM (inactive)	> 100 µM (inactive)	> 100 µM (inactive)	> 100 µM (inactive)	> 100 µM (inactive)	> 100 µM (inactive)
COC(=O)C[C@H](COCc1ccccc1)NC(=O)C[C@H](COCc1ccccc1)NC(=O)C[C@H](COCc1ccccc1)NC(=O)OC(C)(C)C	24.8 µM (inactive)	> 100 µM (inactive)	> 100 µM (inactive)	> 100 µM (inactive)		> 100 µM (inactive)	13.2 µM (inactive)	> 100 µM (inactive)	94 µM (inactive)	41.4 µM (inactive)	32.8 µM (inactive)	> 100 µM (inactive)	> 100 µM (inactive)	> 100 µM (inactive)	13.1 µM (inactive)	38.5 µM (inactive)	> 100 µM (inactive)	20.9 µM (inactive)	16.9 µM (inactive)	60.8 µM (inactive)
COC(=O)c1c2c(cc3c1CC1(C3)Cc3cc4c(c(C(=O)OC)c3C1)CCC4)CCC2	> 100 µM (inactive)	> 100 µM (inactive)	> 100 µM (inactive)	> 100 µM (inactive)	> 100 µM (inactive)		> 100 µM (inactive)	> 100 µM (inactive)	> 100 µM (inactive)	> 100 µM (inactive)	> 100 µM (inactive)	> 100 µM (inactive)	> 100 µM (inactive)			> 100 µM (inactive)	55.8 µM (inactive)	> 100 µM (inactive)	> 100 µM (inactive)	> 100 µM (inactive)
Cc1ccc(S(=O)(=O)N2CCSCCSCCN(S(=O)(=O)c3ccc(C)cc3)CCN(S(=O)(=O)c3ccc(C)cc3)CC2)cc1	> 100 µM (inactive)	> 100 µM (inactive)	> 100 µM (inactive)	> 100 µM (inactive)	> 100 µM (inactive)	> 100 µM (inactive)	> 100 µM (inactive)	> 100 µM (inactive)	> 100 µM (inactive)	> 100 µM (inactive)	> 100 µM (inactive)	> 100 µM (inactive)	> 100 µM (inactive)	> 100 µM (inactive)		> 100 µM (inactive)		> 100 µM (inactive)	> 100 µM (inactive)	> 100 µM (inactive)
CC(=O)Nc1c(S(=O)(=O)c2ccccc2)c(C)c(C)n1CCN(C)C	> 100 µM (inactive)	> 100 µM (inactive)	> 100 µM (inactive)	> 100 µM (inactive)	> 100 µM (inactive)	> 100 µM (inactive)	> 100 µM (inactive)	> 100 µM (inactive)	> 100 µM (inactive)	> 100 µM (inactive)	> 100 µM (inactive)	> 100 µM (inactive)	> 100 µM (inactive)	> 100 µM (inactive)	> 100 µM (inactive)	> 100 µM (inactive)	> 100 µM (inactive)	> 100 µM (inactive)		> 100 µM (inactive)
CC(=O)OC[C@@]12Cc3ccc(C)c(O)c3[C@]1(C)[C@@H](OC(C)=O)[C@]1(O)[C@H]([C@@H](OC(=O)c3ccccc3)[C@@H](C)[C@H]1OC(C)=O)[C@H]2OC(C)=O	> 50 µM (inactive)	> 50 µM (inactive)	> 50 µM (inactive)	> 50 µM (inactive)	> 50 µM (inactive)	> 50 µM (inactive)	> 50 µM (inactive)	> 50 µM (inactive)	> 50 µM (inactive)	> 50 µM (inactive)	> 50 µM (inactive)	> 50 µM (inactive)		> 50 µM (inactive)	16.4 µM (inactive)		> 50 µM (inactive)	> 50 µM (inactive)	> 50 µM (inactive)	> 50 µM (inactive)
Nc1nc(Cl)cc(NC2(CO)CCC2)n1	> 100 µM (inactive)	> 100 µM (inactive)	> 100 µM (inactive)	> 100 µM (inactive)	> 100 µM (inactive)	> 100 µM (inactive)	> 100 µM (inactive)	> 100 µM (inactive)	> 100 µM (inactive)	> 100 µM (inactive)	> 100 µM (inactive)	> 100 µM (inactive)	> 100 µM (inactive)		> 100 µM (inactive)	> 100 µM (inactive)	> 100 µM (inactive)	> 100 µM (inactive)	> 100 µM (inactive)	
C/C(=N\Nc1nc2ccccc2[nH]1)c1ccc2ccccc2n1		0.129 µM (active)	2.39 µM (inactive)	3.15 µM (inactive)	3.04 µM (inactive)	3.58 µM (inactive)	1.44 µM (inactive)	2.25 µM (inactive)	1.81 µM (inactive)	1.52 µM (inactive)	4.29 µM (inactive)	0.755 µM (active)	0.897 µM (active)	2.75 µM (inactive)	2.19 µM (inactive)	2.52 µM (inactive)	2.6 µM (inactive)	2.73 µM (inactive)	2.78 µM (inactive)	8.87 µM (inactive)
NC1=NCC(CN2CCCCC2)O1 (stereo unspecified)		> 100 µM (inactive)	> 100 µM (inactive)	> 100 µM (inactive)	> 100 µM (inactive)	> 100 µM (inactive)	> 100 µM (inactive)		> 100 µM (inactive)	> 100 µM (inactive)	> 100 µM (inactive)	> 100 µM (inactive)	> 100 µM (inactive)	> 100 µM (inactive)	> 100 µM (inactive)	> 100 µM (inactive)	> 100 µM (inactive)	> 100 µM (inactive)	> 100 µM (inactive)	4.12 µM (inactive)
CC1(C)C=Cc2c(cc3oc4ccc5c(c4c(=O)c3c2O)C=CC(C)(C)O5)O1	> 100 µM (inactive)	> 100 µM (inactive)		> 100 µM (inactive)	> 100 µM (inactive)	> 100 µM (inactive)	> 100 µM (inactive)	> 100 µM (inactive)	> 100 µM (inactive)	> 100 µM (inactive)	> 100 µM (inactive)	> 100 µM (inactive)	> 100 µM (inactive)	> 100 µM (inactive)		> 100 µM (inactive)	> 100 µM (inactive)	> 100 µM (inactive)	> 100 µM (inactive)	> 100 µM (inactive)
CN(C)CCCNC(=O)c1c(O)c2ccccc2n(C)c1=O	14.3 µM (inactive)	> 100 µM (inactive)	79.3 µM (inactive)	39.5 µM (inactive)	67.3 µM (inactive)	54 µM (inactive)	67.6 µM (inactive)	63 µM (inactive)	39.5 µM (inactive)	67.1 µM (inactive)	61.8 µM (inactive)	44.5 µM (inactive)	73.8 µM (inactive)		63.7 µM (inactive)	82.2 µM (inactive)	64.9 µM (inactive)	35.5 µM (inactive)	36.3 µM (inactive)	> 100 µM (inactive)
CC(Nc1cccc(Cl)c1)c1ccncc1 (stereo unspecified)	73.1 µM (inactive)	> 100 µM (inactive)	23.1 µM (inactive)	> 100 µM (inactive)	> 100 µM (inactive)	> 100 µM (inactive)	30.5 µM (inactive)	51.5 µM (inactive)	> 100 µM (inactive)	> 100 µM (inactive)	56.2 µM (inactive)	31 µM (inactive)	75.2 µM (inactive)	> 100 µM (inactive)	> 100 µM (inactive)	> 100 µM (inactive)		42.8 µM (inactive)	> 100 µM (inactive)	15.8 µM (inactive)
CNNCc1ccc(C(=O)NC(C)C)cc1 [PROCARBAZINE HYDROCHLORIDE]	369 µM (inactive)	> 404 µM (inactive)	410 µM (inactive)	> 500 µM (inactive)	> 500 µM (inactive)	> 500 µM (inactive)	> 500 µM (inactive)	> 439 µM (inactive)		> 500 µM (inactive)	> 379 µM (inactive)	426 µM (inactive)	465 µM (inactive)	> 500 µM (inactive)	435 µM (inactive)	335 µM (inactive)	366 µM (inactive)	> 423 µM (inactive)	383 µM (inactive)	> 493 µM (inactive)
